Structures can show the parent of a compound that is named as a salt.
Tested on: patients with seasonal allergic rhinitis (SAR)
Assay: MP 428 two-week randomized double-blind study: Total Nasal Symptom Score (TNSS), change from baseline
Format: in vivo, human
Parameters: key to Change from Baseline in AM TNSS, Mean / Change from Baseline in AM TNSS, LS Mean / Change from Baseline in AM TNSS, Median: TNSS sum of 4 symptoms each 0-3 (0=none, 3=severe); change from baseline
Protocol: A two-week, randomized, double-blind study, which evaluated the effects of the co-administration of ASTELIN® (azelastine hydrochloride (HCl)) and FLONASE® (fluticasone propionate) compared to either product alone in patients with seasonal allergic rhinitis (SAR) was conducted during the 2006 Texas mountain cedar season. After a 5-day placebo lead-in period, 151 patients with moderate-to-severe allergic rhinitis symptoms were randomized to either: (1) (49 total patients) ASTELIN® (azelastine hydrochloride (HCl)) plus placebo saline nasal spray 2 sprays per nostril, 15 minutes apart, twice daily (AM & PM); (2) (50 total patients) FLONASE® (fluticasone propionate) plus placebo saline nasal spray, 2 sprays per nostril, 15 minutes apart, once daily (AM) and two sessions of placebo saline nasal spray, 2 sprays per nostril, 15 minutes apart (PM); or (3) (52 total patients) the co-administration of ASTELIN® (azelastine hydrochloride (HCl)) 2 sprays per nostril plus FLONASE® (fluticasone propionate) 2 sprays per nostril (AM), 15 minutes apart, and ASTELIN® (azelastine hydrochloride (HCl)) 2 sprays per nostril plus placebo saline nasal spray, 15 minutes apart, (PM) for a 2-week double-blind treatment period.
The primary efficacy variable was the change from baseline in the Total Nasal Symptom Score (TNSS), which comprised sneezing, itchy nose, runny nose, and nasal congestion (individual symptoms scores were assigned a value between 0 and 3, where 0=no symptoms and 3=severe symptoms). This study was not statistically designed to assess the differences between ASTELIN® and FLONASE®.

[1] = Day 2, Intent-to-Treat Population
[2] = Day 3, Intent-to-Treat Population
[3] = Day 4, Intent-to-Treat Population
[4] = Day 5, Intent-to-Treat Population

For CN1CCCC(n2nc(Cc3ccc(Cl)cc3)c3ccccc3c2=O)CC1 (racemic) [Azelastine, (±)-1-(2H)-phthalazinone, 4-[(4-chlorophenyl)methyl]-2-(hexahydro-1-methyl-1H-azepin-4-yl)-, mono-hydrochloride], the “Primary Reason for Discontinuation From Study: Treatment Failure” value (All Randomized Patients) was 0 (0.0) N (%), the “Change from Baseline in AM TNSS, LS Mean” value [1] was −1.46 and the “Change from Baseline in AM TNSS, Mean” value [1] was −1.48. The “Change from Baseline in AM TNSS, Median” value [1] was −1.25, the “Change from Baseline in AM and PM Combined TNSS, Mean” value [1] was −3.23 and the “Change from Baseline in AM and PM Combined TNSS, Median” value [1] was −2.67. For the same molecule, the “Change from Baseline in PM TNSS, LS Mean” value [1] was −1.65, the “Change from Baseline in PM TNSS, Mean” value [1] was −1.76 and the “Change from Baseline in PM TNSS, Median” value [1] was −1.00. For the same molecule, the “Percent Change from Baseline in AM TNSS, LS Mean” value [1] was −15.45%, the “Percent Change from Baseline in AM TNSS, Mean” value [1] was −15.79% and the “Percent Change from Baseline in AM TNSS, Median” value [1] was −14.29%. For the same molecule, the “Percent Change from Baseline in AM and PM Combined TNSS, LS Mean” value [1] was −16.31%, the “Percent Change from Baseline in AM and PM Combined TNSS, Mean” value [1] was −16.93% and the “Percent Change from Baseline in AM and PM Combined TNSS, Median” value [1] was −12.31%. The “Percent Change from Baseline in PM TNSS, LS Mean” value [1] was −17.15%, the “Percent Change from Baseline in PM TNSS, Mean” value [1] was −17.76% and the “Percent Change from Baseline in PM TNSS, Median” value [1] was −10.00%. The “Change from Baseline in AM and PM Combined TNSS, LS Mean” value (Day 2, Intent-to-Treat Population, ANCOVA model) was −3.10, the “Change from Baseline in AM and PM Combined TNSS, LS Mean” value (Day 2, Per-Protocol Population) was −3.08 and the “Change from Baseline in AM and PM Combined TNSS, Mean” value (Day 2, Per-Protocol Population) was −3.23. The “Change from Baseline in AM and PM Combined TNSS, Median” value (Day 2, Per-Protocol Population) was −2.67, the “Percent Change from Baseline in AM and PM Combined TNSS, LS Mean” value (Day 2, Per-Protocol Population) was −16.25% and the “Percent Change from Baseline in AM and PM Combined TNSS, Mean” value (Day 2, Per-Protocol Population) was −16.93%. For the same molecule, the “Percent Change from Baseline in AM and PM Combined TNSS, Median” value (Day 2, Per-Protocol Population) was −12.31%, the “Change from Baseline in AM TNSS, LS Mean” value [2] was −1.28 and the “Change from Baseline in AM TNSS, Mean” value [2] was −1.29. The “Change from Baseline in AM TNSS, Median” value [2] was −0.80, the “Change from Baseline in AM and PM Combined TNSS, Mean” value [2] was −3.28 and the “Change from Baseline in AM and PM Combined TNSS, Median” value [2] was −1.67. The “Change from Baseline in PM TNSS, LS Mean” value [2] was −1.91, the “Change from Baseline in PM TNSS, Mean” value [2] was −1.98 and the “Change from Baseline in PM TNSS, Median” value [2] was −1.50. The “Percent Change from Baseline in AM TNSS, LS Mean” value [2] was −13.37%, the “Percent Change from Baseline in AM TNSS, Mean” value [2] was −13.75% and the “Percent Change from Baseline in AM TNSS, Median” value [2] was −7.89%. For the same molecule, the “Percent Change from Baseline in AM and PM Combined TNSS, LS Mean” value [2] was −16.85%, the “Percent Change from Baseline in AM and PM Combined TNSS, Mean” value [2] was −17.08% and the “Percent Change from Baseline in AM and PM Combined TNSS, Median” value [2] was −8.11%. For the same molecule, the “Percent Change from Baseline in PM TNSS, LS Mean” value [2] was −19.66%, the “Percent Change from Baseline in PM TNSS, Mean” value [2] was −20.01% and the “Percent Change from Baseline in PM TNSS, Median” value [2] was −15.15%. For the same molecule, the “Change from Baseline in AM and PM Combined TNSS, LS Mean” value (Day 3, Intent-to-Treat Population, ANCOVA model) was −3.21, the “Change from Baseline in AM and PM Combined TNSS, LS Mean” value (Day 3, Per-Protocol Population) was −3.19 and the “Change from Baseline in AM and PM Combined TNSS, Mean” value (Day 3, Per-Protocol Population) was −3.28. The “Change from Baseline in AM and PM Combined TNSS, Median” value (Day 3, Per-Protocol Population) was −1.67, the “Percent Change from Baseline in AM and PM Combined TNSS, LS Mean” value (Day 3, Per-Protocol Population) was −16.85% and the “Percent Change from Baseline in AM and PM Combined TNSS, Mean” value (Day 3, Per-Protocol Population) was −17.08%. For the same molecule, the “Percent Change from Baseline in AM and PM Combined TNSS, Median” value (Day 3, Per-Protocol Population) was −8.11%, the “Change from Baseline in AM TNSS, LS Mean” value [3] was −1.79 and the “Change from Baseline in AM TNSS, Mean” value [3] was −1.76. For the same molecule, the “Change from Baseline in AM TNSS, Median” value [3] was −1.33, the “Change from Baseline in AM and PM Combined TNSS, Mean” value [3] was −3.93 and the “Change from Baseline in AM and PM Combined TNSS, Median” value [3] was −2.92. The “Change from Baseline in PM TNSS, LS Mean” value [3] was −2.09, the “Change from Baseline in PM TNSS, Mean” value [3] was −2.17 and the “Change from Baseline in PM TNSS, Median” value [3] was −2.20. For the same molecule, the “Percent Change from Baseline in AM TNSS, LS Mean” value [3] was −18.88%, the “Percent Change from Baseline in AM TNSS, Mean” value [3] was −18.84% and the “Percent Change from Baseline in AM TNSS, Median” value [3] was −14.89%. The “Percent Change from Baseline in AM and PM Combined TNSS, LS Mean” value [3] was −20.41%, the “Percent Change from Baseline in AM and PM Combined TNSS, Mean” value [3] was −20.50% and the “Percent Change from Baseline in AM and PM Combined TNSS, Median” value [3] was −14.29%. For the same molecule, the “Percent Change from Baseline in PM TNSS, LS Mean” value [3] was −21.42%, the “Percent Change from Baseline in PM TNSS, Mean” value [3] was −21.99% and the “Percent Change from Baseline in PM TNSS, Median” value [3] was −23.08%. The “Change from Baseline in AM and PM Combined TNSS, LS Mean” value (Day 4, Intent-to-Treat Population, ANCOVA model) was −3.89, the “Change from Baseline in AM and PM Combined TNSS, LS Mean” value (Day 4, Per-Protocol Population) was −3.87 and the “Change from Baseline in AM and PM Combined TNSS, Mean” value (Day 4, Per-Protocol Population) was −3.93. For the same molecule, the “Change from Baseline in AM and PM Combined TNSS, Median” value (Day 4, Per-Protocol Population) was −2.92, the “Percent Change from Baseline in AM and PM Combined TNSS, LS Mean” value (Day 4, Per-Protocol Population) was −20.39% and the “Percent Change from Baseline in AM and PM Combined TNSS, Mean” value (Day 4, Per-Protocol Population) was −20.50%. The “Percent Change from Baseline in AM and PM Combined TNSS, Median” value (Day 4, Per-Protocol Population) was −14.29%, the “Change from Baseline in AM TNSS, LS Mean” value [4] was −2.25 and the “Change from Baseline in AM TNSS, Mean” value [4] was −2.23. The “Change from Baseline in AM TNSS, Median” value [4] was −1.67, the “Change from Baseline in AM and PM Combined TNSS, Mean” value [4] was −4.48 and the “Change from Baseline in AM and PM Combined TNSS, Median” value [4] was −3.67. The “Change from Baseline in PM TNSS, LS Mean” value [4] was −2.19, the “Change from Baseline in PM TNSS, Mean” value [4] was −2.25 and the “Change from Baseline in PM TNSS, Median” value [4] was −1.20. For the same molecule, the “Percent Change from Baseline in AM TNSS, LS Mean” value [4] was −23.57%, the “Percent Change from Baseline in AM TNSS, Mean” value [4] was −23.62% and the “Percent Change from Baseline in AM TNSS, Median” value [4] was −15.79%. The “Percent Change from Baseline in AM and PM Combined TNSS, LS Mean” value [4] was −23.20%.

Source: US8758816B2, “Compositions comprising azelastine and methods of use thereof” (priority 2004, dated 2014)
